# Experiments:
# [1] = tested on: Mycobacterium tuberculosis strain H37Rv; assay: microplate Alamar blue assay (MABA); format: cell-based; conditions: Mycobacterium tuberculosis, H37RV, M. tuberculosis H37Rv; lowest concentration effecting 90% inhibition
# [2] = tested on: nonreplicating persistent (NRP) M. tuberculosis strain; assay: microbe, parasite or virus in culture; format: cell-based, Mycobacterium tuberculosis; conditions: Mycobacterium tuberculosis; nonreplicating persistent strain; read-out: LORA MIC
# M. tb H37Rv = assay: MIC on M. tb H37Rv (Table 4 panel); format: cell-based; conditions: Mycobacterium tuberculosis
# M. fortuitum = assay: MIC on nontuberculous Mycobacterium clinical isolate; format: cell-based; conditions: Mycolicibacterium fortuitum
# M. abscessus = assay: as above; format: cell-based; conditions: Mycobacteroides abscessus
# M. chelonae = assay: as above; format: cell-based; conditions: Mycobacteroides chelonae
# M. avium = assay: as above; format: cell-based
# M. smegmatis = assay: as above; format: cell-based; conditions: Mycolicibacterium smegmatis
# [3] = cytotoxicity on macrophages (Alamar blue) and selectivity index; format: cell-based, mouse; conditions: mouse, J774A.1 macrophage cells; for CC50 at 96 h: cytotoxicity on macrophage cell J774A.1 at 96 h; for CC50 at 6 h: cytotoxicity on macrophage cell J774A.1 at 6 h
# Procedure: (§1) The determination of the half maximal cytotoxicity concentration (CC50) of the compounds T-006, T-011, T-018, T-022, T-069, T-085, T-088, and T-089 was carried out on the mouse macrophage cell line J774A.1 (ATCC TIB-67). Briefly, cell monolayers were prepared in 96-well plates with 10,000 cells per well in Ham’s F-12 medium supplemented with 10% Fetal bovine serum (FBS, By products, Guadalajara, Mexico) and antibiotics (penicillin and gentamicin). Five concentrations from 100 to 0.5 μg/mL of each of the compounds were tested. The cells were incubated for a period of 6 h (^−) or 96 h (^+). Before completing this period, 20 μL of Alamar blue solution was added to each well, quantifying the relative fluorescence units in a fluorometer (Fluoroskan Ascent FL, Labsystems). The percentage of cytotoxicity at each concentration was determined by comparing the values against the control of cells without treatment. The CC50 was determined with the Probit regression analysis (MedCalc Statistical Software version 18.5, Ostend, Belgium). Selectivity index was calculated as the ratio of the CC50 on the macrophage cell line J774A.1 and the MIC value against M. tuberculosis strain H37Rv.
# [4] = tested on: mouse macrophage cell line J774A.1; assay: as above; format: cell-based; conditions: ratio of CC50 on J774A.1 and MIC against M. tuberculosis H37Rv
# Procedure: as §1
# [5] = molecular target: M. tuberculosis gyrase (GyrA and Gyr B subunits) (Mycobacterium tuberculosis, UniProt P9WG45+P9WG47); assay: M. tuberculosis gyrase supercoiling assay; format: biochemical; conditions: at 50 μM
# Procedure: The activity of the enzyme was determined prior to the testing of the quinoxaline 1,4-di-N-oxide derivatives and 1 U was defined as the amount of enzyme required to just fully supercoil the substrate under test conditions. Compounds were tested at 50 μM. Final DMSO concentration in the assays was 1% (v/v).
# 1 U of M. tuberculosis gyrase (GyrA and Gyr B subunits) (final concentration in assay 50 nM) was incubated with 0.5 μg of relaxed pBR322 DNA in a 30 μL reaction at 37 °C for 30 min under the following conditions: 50 mM HEPES. KOH (pH 7.9), 6 mM magnesium acetate, 4 mM DTT, 1 mM ATP, 100 mM potassium glutamate, 2 mM spermidine and 0.05 mg/mL albumin.
# Each reaction was stopped by the addition of 30 μL chloroform/iso-amyl alcohol (26:1) and 20 μL Stop Dye (40% sucrose, 100 mM Tris.HCl (pH 7.5), 10 mM EDTA, 0.5 μg/mL bromophenol blue), before being loaded on a 1.0% TAE (Tris.acetate […], EDTA […]) gel run at 80 V for 2 h.
# Bands were visualized by ethidium staining for 10 min, destained for 10 min in water, analyzed by gel documentation equipment (Syngene, Cambridge, UK), and quantified using Syngene software (Genetools version 4.00 (1997–1998), Syngene, A division of Synoptics Corp, Cambridge, UK).
# Raw gel data (fluorescent band volumes) collected from Syngene’s GeneTools gel analysis software were converted to a % of the 100% control (the supercoiled enzyme plus DMSO control DNA band). These were analyzed using SigmaPlot Version 13.0 (Systat Software Inc., London, UK; 2016).
# [6] = stability in human plasma by UPLC-MS; format: in vitro ADME; conditions: 37 °C, 24 h
# Procedure: Compounds T-018 and T-069 were selected to analyze their stability in human plasma. A total of 1 mg of each of the two compounds was dissolved in 1 mL of dichlorometane. Then, 0.1 mL was added to 0.9 mL of 0.1% formic acid in acetonitrile for analysis by UPLC with an ACQUITY QDa mass detector from Waters (Milford, MA, USA) under the following conditions: column: ACQUITY UPLC® BEH C18 1.7 µm, 2.1 × 100 mm; mobile phase: 0.1% formic acid/acetonitrile; run time: 5 min; flow rate: 0.3 mL/min; injection volume: 0.5 µL; temperature: 40 °C. After that, 3 mL of human plasma was obtained from a volunteer under medical supervision and following the standard procedures. Then, 1 mg of T-018 and T-069 were dissolved with DMSO 2% and added to 1 mL of human plasma. Samples were incubated at 37 °C for 12 and 24 h. T-018 and T-069 were obtained by liquid extraction with dichloromethane (10 mL) three times and the solvent was eliminated for vacuum pressure. After that, 1 mL of dichlorometane was added and 0.1 mL was added to 0.9 mL of 0.1% formic acid in acetonitrile and analyzed by UPLC-MS. Percentage of degradation was calculated considering the area under the curve of each peak/the area under the curve of all peaks × 100% at 24 h only.
# Chain of M. tuberculosis gyrase (GyrA and Gyr B subunits) (P9WG45 whole entry): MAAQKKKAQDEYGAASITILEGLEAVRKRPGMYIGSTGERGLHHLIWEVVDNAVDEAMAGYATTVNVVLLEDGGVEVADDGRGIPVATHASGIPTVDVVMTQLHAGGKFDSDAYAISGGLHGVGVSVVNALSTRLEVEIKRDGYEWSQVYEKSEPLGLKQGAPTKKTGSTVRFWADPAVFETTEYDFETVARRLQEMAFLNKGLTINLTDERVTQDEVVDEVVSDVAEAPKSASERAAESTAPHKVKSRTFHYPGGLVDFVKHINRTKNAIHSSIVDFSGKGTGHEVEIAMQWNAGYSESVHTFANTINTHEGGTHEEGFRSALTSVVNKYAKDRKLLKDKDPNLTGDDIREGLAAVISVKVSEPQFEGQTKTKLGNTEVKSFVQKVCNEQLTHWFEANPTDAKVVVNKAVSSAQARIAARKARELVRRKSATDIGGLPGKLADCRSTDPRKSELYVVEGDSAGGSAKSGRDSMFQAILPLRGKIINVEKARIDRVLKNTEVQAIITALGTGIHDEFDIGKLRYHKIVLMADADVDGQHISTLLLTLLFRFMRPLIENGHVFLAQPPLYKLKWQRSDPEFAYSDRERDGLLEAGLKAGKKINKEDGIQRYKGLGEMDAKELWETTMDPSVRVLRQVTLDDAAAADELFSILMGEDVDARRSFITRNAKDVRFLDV
# Chain of M. tuberculosis gyrase (GyrA and Gyr B subunits) (P9WG47 whole entry): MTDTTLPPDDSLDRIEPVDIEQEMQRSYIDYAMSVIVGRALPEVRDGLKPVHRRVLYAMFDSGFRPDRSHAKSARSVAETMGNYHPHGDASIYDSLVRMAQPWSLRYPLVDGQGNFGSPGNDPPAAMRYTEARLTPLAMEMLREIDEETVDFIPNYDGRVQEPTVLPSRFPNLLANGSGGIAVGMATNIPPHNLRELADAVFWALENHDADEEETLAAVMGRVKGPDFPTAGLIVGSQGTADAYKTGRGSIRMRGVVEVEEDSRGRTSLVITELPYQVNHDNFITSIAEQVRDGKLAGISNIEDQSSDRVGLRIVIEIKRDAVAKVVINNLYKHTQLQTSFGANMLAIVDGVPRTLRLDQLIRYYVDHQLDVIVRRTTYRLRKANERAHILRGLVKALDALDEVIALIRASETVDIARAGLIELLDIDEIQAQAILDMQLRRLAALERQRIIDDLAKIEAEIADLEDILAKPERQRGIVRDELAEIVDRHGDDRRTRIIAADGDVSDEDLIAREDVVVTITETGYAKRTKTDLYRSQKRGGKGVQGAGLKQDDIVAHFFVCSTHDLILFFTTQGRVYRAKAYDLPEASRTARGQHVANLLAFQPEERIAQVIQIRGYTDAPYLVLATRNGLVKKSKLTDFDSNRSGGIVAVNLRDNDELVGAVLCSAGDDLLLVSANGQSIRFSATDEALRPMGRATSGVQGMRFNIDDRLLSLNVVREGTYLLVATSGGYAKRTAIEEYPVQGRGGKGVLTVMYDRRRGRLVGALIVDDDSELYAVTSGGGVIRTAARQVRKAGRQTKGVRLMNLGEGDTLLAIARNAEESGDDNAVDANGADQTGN
Structure (SMILES),MIC [1] [µg/mL],MIC [2] [µg/mL],MIC (M. tb H37Rv) [µg/mL],MIC (M. fortuitum) [µg/mL],MIC (M. abscessus) [µg/mL],MIC (M. chelonae) [µg/mL],MIC (M. avium) [µg/mL],MIC (M. smegmatis) [µg/mL],CC50 at 96 h [3] [µg/mL],SI (selectivity index) [4],CC50 at 6 h [3] [µg/mL],inhibitory effect on M. tuberculosis gyrase supercoiling [5],stability in human plasma [6]
CCOC(=O)c1ccc2c(c1)[n+]([O-])c(C(C)=O)c(C(F)(F)F)[n+]2[O-] [Compound T-006],0.29,0.42,2,> 10,> 10,> 10,2.5,> 10,> 100,>50,–,–,–
CCOC(=O)c1ccc2c(c1)[n+]([O-])c(C(=O)c1cccs1)c(C(F)(F)F)[n+]2[O-] [Compound T-011],≤ 0.15,0.21,0.5,2.5,> 10,> 10,< 0.31,0.62,–,3.34,1.67,none of the compounds showed an inhibitory effect,–
COC(=O)c1ccc2c(c1)[n+]([O-])c(C(=O)c1ccccc1)c(C(F)(F)F)[n+]2[O-] [Compound T-018],≤ 0.15,0.34,1,> 10,5,> 10,2.5,2.5,–,35.37,35.4,none of the compounds showed an inhibitory effect,–
COC(=O)c1ccc2c(c1)[n+]([O-])c(C(=O)OC)c(C)[n+]2[O-] [Compound T-022],0.29,0.56,0.5,2.5,> 10,2.5,2.5,0.62,86.2,–,–,–,–
CC(C)OC(=O)c1ccc2c(c1)[n+]([O-])c(C(=O)c1cccs1)c(C(F)(F)F)[n+]2[O-] [Compound T-069],≤ 0.15,0.23,1,> 10,> 10,2.5,5,> 10,–,41.26,41.3,none of the compounds showed an inhibitory effect,high stability
CC(C)OC(=O)c1ccc2c(c1)[n+]([O-])c(C(=O)C(C)C)c(C(F)(F)F)[n+]2[O-] [Compound T-085],≤ 0.15,0.13,1,2.5,2.5,5,0.62,1.25,–,45.42,45.4,–,–
CCCOC(=O)c1ccc2c(c1)[n+]([O-])c(C(=O)OC)c(C)[n+]2[O-] [Compound T-088],≤ 0.15,0.27,0.5,> 10,> 10,> 10,> 10,2.5,36.5,73.02,–,–,–
CCCOC(=O)c1ccc2c(c1)[n+]([O-])c(C(=O)c1cccs1)c(C(F)(F)F)[n+]2[O-] [Compound T-089],0.12,0.15,0.5,> 10,> 10,> 10,0.62,> 10,–,48.54,24.3,–,–

# Reference: paper PMC6099706, “Anti-Mycobacterium tuberculosis Activity of Esters of Quinoxaline 1,4-Di-N-Oxide” (Molecules : A Journal of Synthetic Chemistry and Natural …, 2018)
